Assay results: paper PMC11855827, “High-Throughput Screening of Five Compound Libraries for Anthelmintic Activity and Toxicity Leads to the Discovery of Two Flavonoid Compounds” (International Journal of Molecular Sciences, 2025)
“And” between values parts separate entries of the source, which are not always exact repeats. Identical values can stand only once. Like-named read-outs stand apart in the source and are kept apart here. Where no end group is shown, it is not given here.

System: C. elegans
[1] = Table S2, C. elegans SS assay, 110 μM, averages of 4 data points

Compound: CC(=O)Oc1ccc([C@@H]2CC(=O)c3c(OC(C)=O)cc(OC(C)=O)cc3O2)cc1 [Naringenin triacetate]
- Percentage of motility inhibition 0 h [1]: 0%
- Percentage of motility inhibition 24 h [1]: 14%

Compound: O=c1cc(-c2ccc(O[C@@H]3O[C@H](CO)[C@@H](O)[C@H](O)[C@H]3O)cc2)oc2cc(O)c([C@@H]3O[C@H](CO)[C@@H](O)[C@H](O)[C@H]3O[C@@H]3OC[C@H](O)[C@H](O)[C@H]3O)c(O)c12 [Vaccarin]
- Percentage of motility inhibition 0 h [1]: 0%
- Percentage of motility inhibition 24 h [1]: 6%

Compound: N#C[C@@H](O[C@@H]1O[C@H](CO[C@@H]2O[C@H](CO)[C@@H](O)[C@H](O)[C@H]2O)[C@@H](O)[C@H](O)[C@H]1O)c1ccccc1 [Neoamygdalin]
- Percentage of motility inhibition 0 h [1]: 0%
- Percentage of motility inhibition 24 h [1]: 0%

Compound: CCC(C)(C)C(=O)OC1=C(c2ccc(Cl)cc2Cl)C(=O)OC12CCCCC2 [Spirodiclofen]
- Percentage of motility inhibition 0 h [1]: 5%
- Percentage of motility inhibition 24 h [1]: 0%

Compound: COc1cc(OC)c2c(=O)c(OC)c(-c3ccc(OC)c(OC)c3)oc2c1 [3,5,7,3′,4′‐Pentamethoxyflavone]
- Percentage of motility inhibition 0 h [1]: 2%
- Percentage of motility inhibition 24 h [1]: 24%

Compound: NC(=O)c1cc[n+](CC2=C(C(=O)[O-])N3C(=O)[C@@H](NC(=O)[C@@H](c4ccccc4)S(=O)(=O)[O-])[C@H]3SC2)cc1.[Na+] [Cefsulodin (sodium)]
- Percentage of motility inhibition 0 h [1]: 17%
- Percentage of motility inhibition 24 h [1]: 6%

Compound: CC1(C)S[C@@H]2[C@H](NC(=O)[C@H](NC(=O)N3CCNC3=O)c3ccccc3)C(=O)N2[C@H]1C(=O)[O-].[Na+] [Azlocillin (sodium salt)]
- Percentage of motility inhibition 0 h [1]: 31%
- Percentage of motility inhibition 24 h [1]: 0%

Compound: Cc1cc(CC(C)CC(C)(C)C)n(O)c(=O)c1.NCCO (stereo not shown) [Piroctone olamine]
- Percentage of motility inhibition 0 h [1]: 5%
- Percentage of motility inhibition 24 h [1]: 7%

Compound: C/C=C/C1=C(C(=O)O)N2C(=O)[C@@H](NC(=O)[C@H](N)c3ccc(O)cc3)[C@H]2SC1.O [Cefprozil (monohydrate)]
- Percentage of motility inhibition 0 h [1]: 12%
- Percentage of motility inhibition 24 h [1]: 14%

Compound: RKDVY [Thymopentin]
- Percentage of motility inhibition 0 h (110 μM): 36%
- Percentage of motility inhibition 24 h (110 µM): 3%

Compound: Ginkgolide J
- Percentage of motility inhibition 0 h [1]: 0%
- Percentage of motility inhibition 24 h [1]: 25%

Compound: O=c1c(O[C@@H]2O[C@H](CO[C@@H]3O[C@H](CO)[C@@H](O)[C@H](O)[C@H]3O)[C@@H](O)[C@H](O)[C@H]2O)c(-c2ccc(O)cc2)oc2cc(O)cc(O)c12 [Kaempferol 3‐O‐gentiobioside]
- Percentage of motility inhibition 0 h [1]: 0%
- Percentage of motility inhibition 24 h [1]: 12%

Compound: COC(=O)N[C@H](C(=O)N1CCC[C@H]1c1ncc(-c2ccc(-c3ccc(-c4cnc([C@@H]5CCCN5C(=O)[C@@H](NC(=O)OC)C(C)C)[nH]4)cc3)cc2)[nH]1)C(C)C.Cl.Cl [Daclatasvir (dihydrochloride)]
- Percentage of motility inhibition 0 h [1]: 39%
- Percentage of motility inhibition 24 h [1]: 2%

Compound: (‐)‐Gallocatechin gallate
- Percentage of motility inhibition 0 h [1]: 60%
- Percentage of motility inhibition 24 h [1]: 5%

Compound: Br.O=C(CC1NCCCC1O)Cn1cnc2cc(Br)c(Cl)cc2c1=O (stereo not shown) [Halofuginone (hydrobromide)]
- Percentage of motility inhibition 0 h [1]: 4%
- Percentage of motility inhibition 24 h [1]: 0%

Compound: Oc1cnc2c(O)cccc2c1 [Jineol]
- Percentage of motility inhibition 0 h [1]: 0%
- Percentage of motility inhibition 24 h [1]: 0%

Compound: O=c1cc(-c2ccc(O)c(O)c2)oc2cc(O[C@@H]3O[C@H](CO)[C@@H](O)[C@H](O)[C@H]3O)cc(O)c12 [Cynaroside]
- Percentage of motility inhibition 0 h [1]: 20%
- Percentage of motility inhibition 24 h [1]: 0%

Compound: Vitamin B12
- Percentage of motility inhibition 0 h [1]: 34%
- Percentage of motility inhibition 24 h [1]: 0%

Compound: O=C(O)CO [Glycolic acid]
- Percentage of motility inhibition 0 h [1]: 5%
- Percentage of motility inhibition 24 h [1]: 6%

Compound: C=C(C)[C@@H]1CC[C@]2(C(=O)O[C@@H]3O[C@H](CO[C@@H]4O[C@H](CO)[C@@H](O[C@@H]5O[C@@H](C)[C@H](O)[C@@H](O)[C@H]5O)[C@H](O)[C@H]4O)[C@@H](O)[C@H](O)[C@H]3O)CC[C@]3(C)[C@H](CC[C@@H]4[C@@]5(C)CC[C@H](O[C@@H]6OC[C@H](O)[C@H](O)[C@H]6O[C@@H]6O[C@@H](C)[C@H](O)[C@@H](O)[C@H]6O)[C@@](C)(CO)[C@@H]5CC[C@]43C)[C@@H]12 [Pulchinenoside C]
- Percentage of motility inhibition 0 h [1]: 4%
- Percentage of motility inhibition 24 h [1]: 0%

Compound: COc1cccc(-c2oc3ccccc3c(=O)c2O)c1 [3'‐Methoxyflavonol]
- Percentage of motility inhibition 0 h [1]: 9%
- Percentage of motility inhibition 24 h [1]: 0%

Compound: O=C(O)c1cnc(O)cn1 [5‐hydroxypyr azine‐2‐carboxylic acid]
- Percentage of motility inhibition 0 h [1]: 28%
- Percentage of motility inhibition 24 h [1]: 1%

Compound: COC(=O)C1=CO[C@@H](O[C@@H]2O[C@H](CO)[C@@H](O)[C@H](O)[C@H]2O)[C@H]2[C@@H]1C(=O)C[C@@H]2C [Verbenalin]
- Percentage of motility inhibition 0 h [1]: 60%
- Percentage of motility inhibition 24 h [1]: 44%

Compound: Clinodiside A
- Percentage of motility inhibition 0 h [1]: 1%
- Percentage of motility inhibition 24 h [1]: 0%

Compound: COC[C@]12CN(C)C3[C@@H]4[C@H](OC)[C@H]1[C@@]3([C@@H](OC)C[C@H]2O)[C@]1(O)C[C@@]2(O)[C@H](OC(=O)c3ccccc3)[C@@H]1[C@]4(OC(C)=O)[C@@H](O)[C@@H]2OC [Beiwutine]
- Percentage of motility inhibition 24 h [1]: 13% and 10%

Compound: CC(C)=CCCC(C(=O)O)C1CCC2(C)C3=C(CCC12C)C1(C)CCC(=O)C(C)(C)C1CC3 (stereo not shown) [3-Dehydrotrametenolic acid]
- Percentage of motility inhibition 0 h [1]: 17%
- Percentage of motility inhibition 24 h [1]: 37%

Compound: C[N+](C)(C)C[C@H](O)CC(=O)[O-] [L-Carnitine]
- Percentage of motility inhibition 0 h [1]: 7%
- Percentage of motility inhibition 24 h [1]: 1%

Compound: COc1ccc(-c2cc(=O)c3c(O)cc(O[C@@H]4O[C@H](C(=O)O)[C@@H](O)[C@H](O)[C@H]4O)cc3o2)cc1O [DiosMetin 7‐O‐β‐D‐Glucuronide]
- Percentage of motility inhibition 0 h [1]: 4%
- Percentage of motility inhibition 24 h [1]: 21%

Compound: C[C@@H]1O[C@@H](O[C@H]2[C@H](O[C@H]3[C@H](O[C@H]4CC[C@@]5(C)[C@@H](CC[C@]6(C)[C@@H]5CC=C5[C@@H]7CC(C)(C)C[C@@H](O)[C@]7(C)CC[C@]56C)[C@@]4(C)CO)O[C@H](C(=O)O)[C@@H](O)[C@@H]3O)O[C@H](CO)[C@H](O)[C@@H]2O)[C@H](O)[C@H](O)[C@H]1O [Soyasaponin Bb]
- Percentage of motility inhibition 0 h [1]: 0%
- Percentage of motility inhibition 24 h [1]: 0%

Compound: O=C(N[C@@H](Cc1ccccc1)C(=O)N[C@H](CO)Cc1ccccc1)c1ccccc1 [Aurantiamide]
- Percentage of motility inhibition 0 h [1]: 0%
- Percentage of motility inhibition 24 h [1]: 15%

Compound: COc1cc2c[n+](C)c3c4cc5c(cc4ccc3c2cc1OC)OCO5.[Cl-] [Nitidine (chloride)]
- Percentage of motility inhibition 0 h [1]: 0%
- Percentage of motility inhibition 24 h [1]: 7%

Compound: CC(=O)O[C@@H]1CC[C@@]2(C)[C@@H](CC[C@]3(C)[C@@H]2CC=C2[C@@H]4[C@@H](C)[C@H](C)CC[C@]4(C)CC[C@]23C)[C@@]1(C)C(=O)O [3-Acetyl-beta-boswellic acid]
- Percentage of motility inhibition 0 h [1]: 15%
- Percentage of motility inhibition 24 h [1]: 21%

Compound: COc1ccc(-c2cc(=O)c3c(O)cc(O[C@@H]4O[C@H](CO[C@@H]5O[C@@H](C)[C@H](O)[C@@H](O)[C@H]5O)[C@@H](O)[C@H](O)[C@H]4O)cc3o2)cc1 [Linarin]
- Percentage of motility inhibition 0 h [1]: 15%
- Percentage of motility inhibition 24 h [1]: 23%

Compound: Cl.NC12CC3CC(CC(C3)C1)C2 [Amantadine (hydrochloride)]
- Percentage of motility inhibition 0 h [1]: 42%
- Percentage of motility inhibition 24 h [1]: 2%

Compound: CN[C@@H]1[C@H](O[C@H]2[C@H](O[C@H]3[C@H](O)[C@@H](O)[C@H](N=C(N)N)[C@@H](O)[C@@H]3N=C(N)N)O[C@@H](C)[C@]2(O)C=O)O[C@@H](CO)[C@H](O)[C@H]1O.CN[C@@H]1[C@H](O[C@H]2[C@H](O[C@H]3[C@H](O)[C@@H](O)[C@H](N=C(N)N)[C@@H](O)[C@@H]3N=C(N)N)O[C@@H](C)[C@]2(O)C=O)O[C@@H](CO)[C@H](O)[C@H]1O.O=S(=O)(O)O.O=S(=O)(O)O.O=S(=O)(O)O [Streptomycin (sulfate)]
- Percentage of motility inhibition 0 h [1]: 31%
- Percentage of motility inhibition 24 h [1]: 26%

Compound: CC(C)[C@@H]1[C@H]2OC(=O)[C@@H]1[C@@H]1CC[C@@H]3CN(C)[C@H]2[C@@]31C [Dendrobine]
- Percentage of motility inhibition 0 h [1]: 0%
- Percentage of motility inhibition 24 h [1]: 3%

Compound: COc1cc2c(cc1O)CC[N+](C)(C)[C@@H]2Cc1ccc(O)cc1.[OH-] [Lotusine (hydroxide)]
- Percentage of motility inhibition 0 h [1]: 4%
- Percentage of motility inhibition 24 h [1]: 0%

Compound: CC1(C)CC[C@]2(C(=O)O)CC[C@]3(C)C(=CC[C@@H]4[C@@]5(C)C[C@H](O)[C@H](O)[C@@](C)(CO)[C@@H]5CC[C@]43C)[C@@H]2C1 [Bayogenin]
- Percentage of motility inhibition 0 h [1]: 2%
- Percentage of motility inhibition 24 h [1]: 5%

Compound: CCc1ccc(O)c2cc3c(nc12)-c1cc2c(c(=O)n1C3)COC(=O)[C@]2(O)CC [12‐Ethyl‐9‐hydroxycamptothecin]
- Percentage of motility inhibition 0 h [1]: 16%
- Percentage of motility inhibition 24 h [1]: 27%

Compound: CSC(=O)OCC1=C[C@H](O)[C@H]2C(C(=O)O)=CO[C@@H](O[C@@H]3O[C@@H](CO)[C@@H](O)[C@@H](O)[C@H]3O)[C@H]12 [Paederosidic acid]
- Percentage of motility inhibition 0 h [1]: 0%
- Percentage of motility inhibition 24 h [1]: 0%

Compound: COc1cc2c(cc1OC)[C@H]1[C@@H](C)c3ccc(OC)c(OC)c3CN1CC2 [Corydaline]
- Percentage of motility inhibition 0 h [1]: 0%
- Percentage of motility inhibition 24 h [1]: 8%

Compound: C=C(CCC=C(C)C)[C@H]1CC[C@]2(C)[C@@H]1[C@H](O)C[C@@H]1[C@@]3(C)CC[C@H](O)C(C)(C)[C@@H]3[C@@H](O[C@@H]3O[C@H](CO)[C@@H](O)[C@H](O)[C@H]3O)C[C@]12C [Ginsenoside Rk3]
- Percentage of motility inhibition 0 h [1]: 0%
- Percentage of motility inhibition 24 h [1]: 19%

Compound: C=C[C@H]1C[N@@]2CC[C@H]1C[C@H]2[C@H](O)c1ccnc2ccc(OC)cc12 [Quinine]
- Percentage of motility inhibition 24 h [1]: 0% and 8% and 1%

Compound: O=C([O-])CCC(=O)[O-].[Na+].[Na+] [Disodium succinate]
- Percentage of motility inhibition 0 h [1]: 19%
- Percentage of motility inhibition 24 h [1]: 1%

Compound: S=C=Nc1ccc(N=C=S)cc1 [p‐Phenylene diisothiocyanate]
- Percentage of motility inhibition 0 h [1]: 2%
- Percentage of motility inhibition 24 h [1]: 9%
